Data on four compounds can be found in EPA's ToxRefDB 2.

One may read the LOAEL as the lowest dose or exposure tested at which an adverse effect was seen. Usually NOAEL stands for the highest dose or exposure tested at which no adverse effect was seen.

Data set [1] concerns mouse. Conditions: Prenatal developmental toxicity study; swiss albino; Oral; Gavage/Intubation; dose end: 15 GD; group: developmental; systemic / in life observation / body weight / fetal weight.
Data set [2] relates to rat. Conditions: Multigenerational reproductive toxicity study, sprague dawley, Oral, Gavage/Intubation, dose end: 1 generation.
A further data set relates to primate. To be noted: Subchronic oral toxicity in nonrodent, macaque, Gavage/Intubation, dose end: 90 day, group: systemic, systemic / in life observation / clinical signs / defecation (diarrhea) + systemic / in life observation / clinical signs / emesis.
In data set [3] the test system is rabbit. Conditions: Prenatal developmental toxicity study; new zealand white; Oral; Gavage/Intubation; dose end: 18 GD; group: maternal; systemic / in life observation / body weight / body weight gain + systemic / in life observation / clinical signs / [other] + systemic / in ….
In data set [4] the test system is rat. Conditions: Prenatal developmental toxicity study; wistar; Injection; Intraperitoneal; dose end: 18 GD; group: maternal; reproductive / reproductive performance / resorptions / resorptions + reproductive / reproductive performance / reproductive performance ….
The test system of data set [5] is rat. To be noted: Prenatal developmental toxicity study; wistar; Injection; Intraperitoneal; dose end: 18 GD; group: developmental; developmental / developmental malformation / placenta / size + systemic / in life observation / body weight / fetal weight.
The subject of data set [6] is rabbit. To be noted: Prenatal developmental toxicity study, new zealand white, Injection, Intravenous, dose end: 15 GD.
For data set [7], the system named is rat. To be noted: Prenatal developmental toxicity study; sprague dawley; Injection; Intraperitoneal; dose end: 20 GD; group: maternal; reproductive / reproductive performance / reproductive performance other / runts + systemic / in life observation / body weight / body ….
The subject of data set [8] is dog. To be noted: Subchronic oral toxicity in nonrodent, beagle, Feed, dose end: 13 week, group: systemic.
For data set [9], the system named is mouse. Conditions: Combined chronic toxicity/carcinogenicity, cd1, Oral, Feed, dose end: 95 week, group: systemic.
In data set [10] the test system is rabbit. To be noted: Prenatal developmental toxicity study, new zealand white, Oral, Gavage/Intubation, dose end: 19 GD.
Data set [11] has as its system rat. To be noted: Subchronic oral toxicity in rodents, sprague dawley, Feed, dose end: 13 week, group: systemic, systemic / hematology / leukocyte (wbc) count differential / leukocyte (wbc) + systemic / in life observation / body weight / body weight ….
Data set [12] has as its system rat. To be noted: Combined chronic toxicity/carcinogenicity, sprague dawley, Oral, Feed, dose end: 104 week, group: systemic.
For data set [13], the system named is rat. To be noted: Prenatal developmental toxicity study, sprague dawley, Oral, Gavage/Intubation, dose end: 15 GD.
Data set [14] concerns dog. To be noted: Chronic toxicity; beagle; Oral; Feed; dose end: 12 month; group: systemic; systemic / hematology / erythrocyte (rbc) count differential / erythrocyte (rbc) + systemic / hematology / hematocrit (hct) / hematocrit (….
[15] abbreviates: group: offspring, systemic / in life observation / body weight / offspring (pup) weight.
Where [16] appears, read: group: parental, systemic / in life observation / clinical signs / [other].
Setting [17] is: group: parental, systemic / in life observation / clinical signs / [other] + systemic / in life observation / body weight / body weight gain + systemic / in ….
Where [18] appears, read: group: developmental, developmental / developmental malformation / bone / [other] + developmental / developmental malformation / brain / hydrocephaly + ….
The mark [19] stands for this setting: group: maternal, reproductive / reproductive performance / resorptions / resorptions.
[20] abbreviates: group: maternal, reproductive / reproductive performance / resorptions / resorptions + reproductive / offspring survival early / live fetuses / live fetuses.
[21] abbreviates: systemic / clinical chemistry / alkaline phosphatase (alp/alk) / alkaline phosphatase (alp/alk) + systemic / clinical chemistry / aspartate ….
The mark [22] stands for this setting: systemic / organ weight / heart / absolute.
Setting [23] is: systemic / in life observation / body weight / body weight + systemic / in life observation / body weight / body weight gain + systemic / in….
Where [24] appears, read: group: developmental, developmental / developmental malformation / other / other + systemic / in life observation / body weight / fetal weight + developmental / ….
Setting [25] is: group: maternal, systemic / in life observation / body weight / body weight gain + systemic / in life observation / clinical signs / no feces + systemic / in….
[26] abbreviates: group: maternal, systemic / in life observation / clinical signs / no feces + systemic / in life observation / clinical signs / soft stools.
Where [27] appears, read: systemic / hematology / leukocyte (wbc) count differential / leukocyte (wbc) + systemic / pathology microscopic / liver / adenoma/carcinoma ….
Setting [28] is: group: developmental, developmental / developmental malformation / bone / unossified.
[29] abbreviates: group: developmental, developmental / developmental malformation / bone / unossified + developmental / developmental malformation / bone / incomplete ossification….
[30] abbreviates: group: maternal, systemic / in life observation / body weight / body weight + systemic / in life observation / body weight / body weight gain + systemic / in….

Some results are limits rather than exact numbers.

In the data set with mouse [1], `Nc1ccn([C@H]2CC[C@@H](CO)O2)c(=O)n1` [2',3'-Dideoxycytidine] showed an LEL of 500 mg/kg/day, an LOAEL of more than 500 mg/kg/day, an NEL of 200 mg/kg/day and an NOAEL not below 500 mg/kg/day.
As to `COc1ccc2c(c[n+](C)c3c4cc5c(cc4ccc23)OCO5)c1OC.C[n+]1cc2c3c(ccc2c2ccc4cc5c(cc4c21)OCO5)OCO3.[Cl-].[Cl-]` [Chelerythrine chloride mixture with sanguinarine chloride], the LEL in the data set on rat [2] (setting [15]) is 100 mg/kg/day; in the data set on rat [2] (setting [16]) it was 30 mg/kg/day; in the data set with primate, 10 mg/kg/day; in the data set with rabbit [3], 25 mg/kg/day. Moreover, the LOAEL in the data set with rat [2] (setting [15]) was 100 mg/kg/day; in the data set with rat [2] (setting [16]) it was 30 mg/kg/day; with primate, 10 mg/kg/day; in the data set with rabbit [3] it was 25 mg/kg/day. Further, the NEL with rat [2] (setting [15]) is 30 mg/kg/day; with rat [2] (setting [17]) it was 10 mg/kg/day; with primate, less than 10 mg/kg/day; with rabbit [3], 15 mg/kg/day. For the same compound, the NOAEL in the data set on rat [2] (setting [15]) is 30 mg/kg/day; in the data set with rat [2] (setting [17]) it was 10 mg/kg/day; with primate, less than 10 mg/kg/day; in the data set on rabbit [3] it was 15 mg/kg/day.
`CN(Cc1cnc2nc(N)nc(N)c2n1)c1ccc(C(=O)N[C@@H](CCC(=O)O)C(=O)O)cc1` [Methotrexate]: the LEL came to 0.5 mg/kg/day in the data set on rat [4]; 0.5 mg/kg/day in the data set with rat [5]; 19.2 mg/kg/day with rabbit [6] (setting [18]); 9.6 mg/kg/day in the data set with rabbit [6] (setting [19]); 0.5 mg/kg/day in the data set with rat [7]. The LOAEL is more than 2 mg/kg/day in the data set on rat [4]; more than 0.5 mg/kg/day in the data set with rat [5]; more than 19.2 mg/kg/day in the data set on rabbit [6] (setting [18]); more than 19.2 mg/kg/day in the data set with rabbit [6] (setting [20]); more than 2 mg/kg/day in the data set on rat [7]. For the same compound, the NEL was less than 0.5 mg/kg/day with rat [4], less than 0.5 mg/kg/day in the data set with rat [5], 4.8 mg/kg/day with rabbit [6] (setting [19]) and less than 0.5 mg/kg/day with rat [7]. Further, the NOAEL is not below 2 mg/kg/day in the data set with rat [4]; not below 0.5 mg/kg/day in the data set on rat [5]; not below 19.2 mg/kg/day in the data set with rabbit [6] (setting [18]); not below 19.2 mg/kg/day with rabbit [6] (setting [20]); not below 2 mg/kg/day in the data set on rat [7].
As for `CCNc1nc(Cl)nc(NCC)n1` [Simazine], the LOAEL in the data set with dog [8] (setting [21]) came out at 64.3 mg/kg/day; in the data set with mouse [9] (systemic / in life observation / body weight / body weight + systemic / in life observation / body weight / body weight gain) it was 132 mg/kg/day; in the data set with rabbit [10] (group: developmental, developmental / developmental malformation / other / other + systemic / in life observation / body weight / fetal weight), 200 mg/kg/day; in the data set on rabbit [10] (setting [25]) it was 75 mg/kg/day; with rat [11], 12.6 mg/kg/day; with rat [12] (systemic / hematology / leukocyte (wbc) count differential / leukocyte (wbc)), 4.17 mg/kg/day. In addition, the LOAEL in the data set on rat [13] (setting [29]) was found to be 300 mg/kg/day; in the data set with rat [13] (setting [30]), 300 mg/kg/day; in the data set with dog [14] it was 3.64 mg/kg/day. Moreover, the NOAEL with dog [8] (setting [21]) was 8.2 mg/kg/day; with mouse [9] (setting [23]), 5.3 mg/kg/day; in the data set on rabbit [10] (setting [24]), 75 mg/kg/day; in the data set on rabbit [10] (setting [25]), 5 mg/kg/day; in the data set with rat [11], less than 12.6 mg/kg/day; with rat [12] (setting [27]) it was 0.41 mg/kg/day. Moreover, the NOAEL in the data set on rat [13] (setting [29]) was 30 mg/kg/day; in the data set with rat [13] (setting [30]) it was 30 mg/kg/day; with dog [14], 0.76 mg/kg/day. Besides, the LEL in the data set on dog [8] (setting [22]) is 6.9 mg/kg/day; in the data set on mouse [9] (setting [23]) it was 132 mg/kg/day; in the data set with rabbit [10] (setting [24]) it was 200 mg/kg/day; in the data set with rabbit [10] (setting [26]), 5 mg/kg/day; in the data set on rat [11], 12.6 mg/kg/day; with rat [12] (systemic / hematology / leukocyte (wbc) count differential / leukocyte (wbc) + systemic / in life observation / body weight / body weight …), 4.17 mg/kg/day. The LEL stood at 30 mg/kg/day in the data set with rat [13] (setting [28]), 300 mg/kg/day in the data set with rat [13] (setting [30]) and 3.64 mg/kg/day in the data set with dog [14]. Moreover, the NEL is less than 6.9 mg/kg/day with dog [8] (setting [22]); 5.3 mg/kg/day in the data set with mouse [9] (setting [23]); 75 mg/kg/day in the data set on rabbit [10] (setting [24]); less than 5 mg/kg/day with rabbit [10] (setting [26]); less than 12.6 mg/kg/day in the data set with rat [11]; 0.41 mg/kg/day in the data set on rat [12] (setting [27]). Besides, the NEL in the data set on rat [13] (setting [28]) was less than 30 mg/kg/day; in the data set on rat [13] (setting [30]), 30 mg/kg/day; with dog [14], 0.76 mg/kg/day.
